Data on six compounds can be found in patent US8106152B2, “Antimicrobial composition” (Dairy Australia Limited, priority 2003, dated 2012).

Where two headings read alike, the source gives them in different places. Non-standard residues stand in square brackets, D forms with d. No end group written: not given here. pS = N[C@@H](COP(=O)(O)O)C(=O)O

In data set [1] the test system is plaque. As to conditions: double blind crossover trial, Addy et al., 1980; cited from earlier work.
For data set [2], the system named is Streptococcus mutans Ingbritt. Briefly: Antibacterial planktonic assay (microplate growth assay). The format is cell-based. As to conditions: for MIC: pH 7.20, tested singly or in combination with a 1:1 ratio of zinc or calcium; for inhibition of S. mutans growth: growth pH 7.20, up to concentrations of 300 μM. How it is done: The oral opportunistic pathogen Streptococcus mutans Ingbritt was used in this study as an indicator strain. The antibacterial assay was conducted in 96 well plates and bacterial growth continuously monitored over 40 h, as previously described (Malkoski et al., 2001). Briefly, bacteria were cultured in Todd Hewitt Broth (36.4 g/l) containing Yeast extract (5.0 g/l) and 100 mM potassium phosphate with a pH of 6.3 or 7.2. The bacterial inocula were prepared by diluting exponentially growing cells in growth medium to give 2.7×10^4 viable cells/ml. In the bacterial growth assays test wells contained κ-casein-A(106-169) or κ-casein-B(106-169) at concentrations between 20 and 120 μM. these peptides were also tested in combination with zinc or calcium ions to give ratios of […]:divalent metal ion of 1:1 to 1:4. Synthetic […]κ-casein-A(138-158) and […]κ-casein-B(138-158) peptides were also tested in this assay. The plates were incubated at 37° C. and growth determined by measuring optical density (OD) at 620 nm using an iEMS microplate reader (Labsystems, OY Research Technologies Division).

The test system of data set [3] is S. mutans Ingbritt biofilm. As to the kind of experiment: Viability of S. mutans cultured as a biofilm in constant depth film fermenter (CDFF). The format is cell-based, Streptococcus mutans. The protocol: A constant depth film fermenter (CDFF: Wimmpenny, Cardiff University, UK) was used for biofilm formation. The CDFF consists of a stainless steel disc rotating at a constant speed of 3 rpm containing 15 polytetrafluoroethylene (PTFE) pans each of which contain 5 plugs of 4.5 mm in diameter. The plugs were set to 0.4 mm below the surface of the steel disc. Inbuilt scrapers were used to maintain a constant biofilm depth of 0.4 mm. The scrapers are attached so that the stainless steel disc rotates under them; the scrapers are spring loaded so that they are pressed down against the pans. An anaerobic atmosphere was maintained in the CDFF by continuous gassing with 5% CO2 in N2. The CDFF was housed in a modified CO2 incubator, which was used to maintain a constant culture temperature of 37° C. A S. mutans Ingbritt batch culture in Todd Hewitt (35.4 g/l), Yeast Extract (8 g/L) broth (THYE) in exponential growth phase was used to inoculate the CDFF at a flow rate of 30 ml/h for 5 h. The growth media, THYE containing 0.1% (w/v) sucrose, was then pumped into the CDFF at a constant flow rate of 40 ml/h.
At specified times prior to and after treatment with solutions, plugs were removed from the CDFF, washed to remove planktonic bacteria and viable counts were performed to determine bacterial numbers. To assess the effect on cell viability of various solutions growth media addition to the CDFF was suspended for 10 min and replaced by the solution at a flow rate of 30 ml/h. After 10 min growth media addition was resumed. Solutions tested in the CDFF were: 2 mM Tris-HCl pH6.0; 10 mg/ml Kappacin preparation (see above) in 2 mM Tris-HCl pH 6.0; 10 mg/ml Kappacin preparation (see above) and 20 mM ZnCl2 in 2 mM Tris-HCl pH 6.0; 20 mM ZnCl2 in 2 mM Tris-HCl pH 6.0; 2 mM ZnCl2 in 2 mM Tris-HCl pH 6.0 and 0.05% chlorhexidine digluconate in deionized water.

The test system of data set [4] is Streptococcus mutans Ingbritt. The settings on record: S. mutans, pH 6.28; previous study (Malkoski et al., 2001); cited from earlier work.
Data set [5] concerns supragingival dental plaque. As to the kind of experiment: Clinical antiplaque trial, mouthrinse as only oral hygiene, Silness and Loe Plaque Index. The format is in vivo, human. From the text: Ten subjects were recruited for the double-blind, cross-over study. Subjects were recruited from undergraduate students enrolled at the School of Dental Science, The University of Melbourne. The group consisted of 6 females and 4 males with a mean age of 21 years. Subjects were examined prior to the commencement of the trial and all were gauged to be of good health, having dentitions without unrestored carious lesions or evidence of moderate to severe gingivitis. The subjects had not used any dentifrices containing antimicrobial agents prior to commencement of the trial. Approval was obtained from the Human Research Ethics Committee of the University of Melbourne.
At the commencement of the trial, the subjects were instructed to cease all other forms of daily oral hygiene practices and to solely rely on the use of the allocated mouthrinse solution. Four solutions were tested as mouthrinses in this investigation: Solution A: Deionized water. B: 1% (w/v) Kappacin preparation in deionized water. C: 20 mM ZnCl in deionized water. D: 1% (w/v) Kappacin preparation and 20 mM ZnCl in deionized water. The pH of all solutions was adjusted to 6.9±0.1 using KOH. Subjects were instructed to rinse three times daily: morning, mid-day and evening with 15 ml of solution for a duration of one minute. Each trial session was for four days with a clinical evaluation at the end of the trial. The Silness and Loe Plaque Index (PI) was used to evaluate plaque (Silness and Loe, 1964). The gingival area of each tooth surface (distal, buccal, mesial and lingual) was given a score from 0-3. All teeth excluding third molars were scored at the conclusion of the trial. Following each trial session the subjects resumed their normal oral hygiene habits for a minimum of seven days prior to the next trial. Data were analysed using the nonparametric Wilcoxon rank test.

Data set [6] concerns plaque. As to conditions: mouthrinse, Silness and Loe plaque index, Giertsen et al. (1988); cited from earlier work.

As to `O=C([O-])CC(O)(CC(=O)[O-])C(=O)[O-].O=C([O-])CC(O)(CC(=O)[O-])C(=O)[O-].[Zn+2].[Zn+2].[Zn+2]` [Zinc citrate], in data set [1], the “reduction of plaque accumulation (Turesky plaque index)” value is 5-8%.
The term MIC denotes the least concentration at which growth counts as inhibited. With `[Ca+2].[Cl-].[Cl-]` [CaCl2], the MIC entry in data set [2] (S. mutans) is “NI (No inhibition at concentrations up to 1 mM)”. Besides, the “effect on S. mutans growth” value in data set [2] (alone, at concentrations up to 1 mM) is “no effect”.
Consider `[H]/N=C(\N/C(=N/[H])NCCCCCCNC(=N)NC(=N)Nc1ccc(Cl)cc1)Nc1ccc(Cl)cc1` [chlorhexidine digluconate], for which the “decrease in S. mutans cell viability” value in data set [3] is recorded as 48%. In addition, the “time after treatment with no significant difference to pre-treatment viability” value in data set [3] (0.05% (w/v) solution) was 3.5 h.
In the case of `CC[C@H](C)[C@H](NC(=O)[C@@H](NC(=O)[C@H](CCC(=O)O)NC(=O)[C@@H]1CCCN1C(=O)[C@H](COP(=O)(O)O)NC(=O)[C@H](C)NC(=O)[C@H](CCC(=O)O)NC(=O)[C@H](CC(C)C)NC(=O)[C@@H](NC(=O)[C@H](C)NC(=O)[C@@H](NC(=O)[C@@H](NC(=O)[C@H](CO)NC(=O)[C@H](CCC(=O)O)NC(=O)[C@@H](NC(=O)[C@H](C)N)C(C)C)[C@@H](C)O)C(C)C)[C@@H](C)O)C(C)C)C(=O)N[C@@H](CCC(=O)O)C(=O)N[C@@H](CO)C(=O)N1CCC[C@H]1C(=O)N1CCC[C@H]1C(=O)N[C@@H](CCC(=O)O)C(=O)O` [Ser(P)^149κ-casein-B(138-158), Ala Val Glu Ser Thr Val Ala Thr Leu Glu Ala Ser(P) Pro Glu Val Ile Glu Ser Pro Pro], in data set [2] (S. mutans, growth pH 6.28, microplate growth assay), the “calculated MIC” value is 44 µM. In data set [2], the “inhibition of S. mutans growth” value is “no inhibition”.
As for “AVESTVATLED[pS]PEVIESPP [Ser(P)^149κ-casein-A(138-158)]”, the figures for the MIC result in data set [2] (S. mutans) and in data set [4] were “NI (No inhibition at concentrations up to 1 mM)” and 26 µM, respectively. In addition, in data set [2], the “inhibition of S. mutans growth” value was “no inhibition”.
`[Cl-].[Cl-].[Zn+2]` [ZnCl2]: in data set [2] (S. mutans), the MIC amounted to 200 µM. Also, in data set [3] (20 mM ZnCl2 in 2 mM Tris-HCl pH 6.0), the “decrease in viable cell counts” value amounted to 92%. In data set [3] (5 ml of 2 mM ZnCl2 in 2 mM Tris-HCl pH 6.0), the “reduction of viable count” value is given as ~60%. Also, the “plaque accumulation relative to water or other treatments (Wilcoxon rank test, posterior teeth plaque index scores)” value in data set [5] (four days mouthrinse as only oral hygiene) was “significantly (P<0.05) reduced”. In data set [5] (four days, 20 mM zinc chloride mouthrinse), the “decrease in mean whole mouth plaque index scores” value worked out at 6%. The “decrease in the mean Plaque Index Score of posterior teeth compared with water control” value in data set [5] (four days, 15 ml rinse three times daily, 1% (w/v) Kappacin and/or 20 mM ZnCl2, pH 6.9) was determined as 9%. The “increase in the tooth surfaces with no plaque compared with a water control” value in data set [6] was 9%.
